Measurements published in patent US20100093642A1, “NOVEL POLYPEPTIDES” (priority 2006, published 2010).
Values after ≈ are worked out from the molar mass of the structure shown. Residues, ends and D or L forms follow the SMILES beside them. No end group written: not given here.

Columns and labels:
Assay type in all cases: cell-based
Fusarium sp. = test: Antifungal MIC; details: filamentous fungi; more than 50% inhibition of visible growth, 48 h
Procedure: (§1) The various derivates of P17 (brominated and non-brominated) were tested for their ability to inhibit fungal growth of the yeast strains Saccaharomyces cerevisiae sp, Candida albicans (ATCC 10231) and Rodotorula sp., and the filamentous strains Botrytis cinerea 101, Penicillium rogveforti, and Fusarium sp. All strains, except C. albicans, were a gift from Prof. A. Tronsmo (The Norwegian University of Life Sciences, Ås, Norway). The fungi were cultivated on potato dextrose agar, supplemented with 2% glucose, at room temperature. Before antifungal testing, the fungi were dissolved in potato dextrose broth (Difco) at half-strength. Cell concentration was determined and adjusted after counting in a Bürker chamber. The filamentous fungi were filtered through a piece of cotton before counting. An aliquot of 50 μl of fungal spores (final concentration 2×10^5 spores per ml) were inoculated in microtiter plates (96 wells) along with 50 μl peptide solution. Peptides, dissolved in distilled water, were tested at final concentrations (two-fold dilutions) ranging from 50 μM to 0.1 μM. Cultures were grown in the dark (without shaking) and with a moist chamber at 25° C. (37° C. for C. albicans). Growth inhibition was determined microscopically after 48 h of incubation. MIC was determined as the lowest concentration of peptide resulting in 50% inhibition of visible growth.

Penicillum rogveforti = test: Antifungal MIC; details: filamentous fungi; more than 50% inhibition of visible growth, 48 h
Procedure: as §1

[1] = system: Pseudomonas aeruginosa ATCC 27853; details: non-clinical isolate; 37° C.; 3×10^6 cells per ml
Procedure: (§2) The antibacterial activities of the different peptides were determined by continuous monitoring of bacterial growth with a Bioscreen C microbiology reader (Labsystems Oy, Helsinki, Finland). The test was performed in 100-well flat-bottomed honeycomb plates, in which 50 μl of test fractions were incubated with 50 μl of a suspension of an actively growing culture of bacteria diluted in Mueller Hinton medium to a starting concentration of 3×10^4 cells per ml. The Gram-negative bacteria, Listonella (Vibrio) anguillarum, serotype O2 (FT 1801, a fish pathogenic strain), Pseudomonas aeruginosa and E. coli (ATCC 25922), and the Gram-positive bacteria, C. glutamicum (ATCC 13032) and S. aureus (ATCC 9144), were chosen as test bacteria. The growth chamber was maintained at either 20 or 37° C. during the incubation period. The absorbance was measured at 2 h intervals for 48 h by a turbidometric method with vertical light photometry and a wide band filter (420-580 nm), which is more insensitive to color change in the sample compared to single wavelength detection. Antibacterial activity was determined when the optical density (OD) of the growth control (bacteria plus water) reached an absorbance of 0.3-0.4. Fractions were regarded as active when the OD was less than 50% of the growth control. Polymyxin B (Sigma, St. Louis, Mo., USA), Lactoferricin B, Cecropin P1 and Hyalophora cecropia Cecropin B were used as reference.
(§3) The antimicrobial molecules were also tested against drug resistant clinical isolates, such as the commonly encountered multi-resistant human pathogen S. aureus (MRSA) K15-64 and the glycopeptide (vancomycin)-resistant Enterococccus faecium (GREF) K9-28. The non-clinical isolates Escherichia coli (ATCC 25922), Pseudomonas aeruginosa (ATCC 27853), Corynebacterium glutamicum (ATCC 13032), and Staphylococcus aureus (ATCC 9144) were also tested for comparison. Serial dilutions of synthetic peptides were made in double distilled water and tested according to the method described above. However, in these experiments the starting concentration of bacteria were 3×10^6 cells per ml and the temperature in the growth chamber was 37° C. Polymyxin B was used as positive control for the Gram-negative bacteria.

[2] = system: Escherichia coli, ATCC 25922; details: non-clinical isolate; 37° C.; 3×10^6 cells per ml
Procedure: as §2, §3

[3] = system: human embryonic lung fibroblast cell line MRC-5; details: 24 h
[4] = system: human colorectal adenocarcinoma cell line HT-29; details: 24 h

CC[C@H](C)[C@H](NC(=O)CNC(=O)[C@H](CO)NC(=O)[C@H](CCCCN)NC(=O)[C@@H](NC(=O)[C@H](C)NC(=O)[C@H](Cc1c[nH]cn1)NC(=O)[C@H](CO)NC(=O)[C@@H](NC(=O)[C@H](CCCCN)NC(=O)[C@H](Cc1c[nH]cn1)NC(=O)[C@H](Cc1ccccc1)NC(=O)[C@@H](NC(=O)[C@H](CCCCN)NC(=O)[C@H](CCCCN)NC(=O)[C@H](Cc1ccccc1)NC(=O)C(Cc1c[nH]c2ccc(Br)cc12)NC(=O)CN)[C@@H](C)O)C(C)C)C(C)C)C(=O)N[C@@H](Cc1c[nH]cn1)C(=O)N[C@@H](C)C(=O)NCC(=O)N[C@@H](CCC(N)=O)C(=O)N[C@@H](CCCNC(=N)N)C(=O)NCC(=O)N[C@@H](CS)C(=O)N[C@@H](CO)C(=O)N[C@@H](C)C(=O)N[C@@H](CC(C)C)C(=O)NCC(=O)N[C@@H](Cc1ccccc1)C(=O)O (stereo partly shown) [P17 HC-Br] (HELM PEPTIDE1{G.[O=C(C(Cc1c[nH]c2ccc(Br)cc12)N[*:1])[*:2]].F.K.K.T.F.H.K.V.S.H.A.V.K.S.G.I.H.A.G.Q.R.G.C.S.A.L.G.F}$$$$V2.0)
Minimal inhibitory concentration (MIC), Fusarium sp. (Fusarium sp.): 1.56 µM (≈ 5.18 µg/mL) | Minimal inhibitory concentration (MIC), Penicillum rogveforti (Penicillum rogveforti): 6.25 µM (≈ 20.8 µg/mL) | Minimal inhibitory concentration, Pseudomonas aeruginosa ATCC 27853 [1]: 6.25 µM (≈ 20.8 µg/mL) | Minimal inhibitory concentration, Escherichia coli, ATCC 25922 [2]: 6.25 µM (≈ 20.8 µg/mL)

GWFKKTFHKVSHAVKSGIHAGQRGCSALGF [P17 HC]
Minimal inhibitory concentration (MIC), Fusarium sp. (Fusarium sp.): 1.56 µM | Minimal inhibitory concentration (MIC), Penicillum rogveforti (Penicillum rogveforti): 6.25 µM | IC50 [3]: 53 µM | IC50 [4]: 52 µM | Minimal inhibitory concentration, Pseudomonas aeruginosa ATCC 27853 [1]: 6.25 µM | Minimal inhibitory concentration, Escherichia coli, ATCC 25922 [2]: 6.25 µM
